Results taken from patent US9926281B2 (priority 2014, dated 2018).
pIC50: −log10 of the molar value.

Key:
human TACE = human TACE (Homo sapiens (Human), UniProt P78536); settings: read-out: TACE potency IC50
human ADAMTS-5 = human ADAMTS-5 (Homo sapiens (Human), UniProt Q9UNA0); settings: read-out: hADAMTS-5 potency IC50
Method: Finally, the fluorescence is read on the Envision (Perkin Elmer) after an incubation of 90 min at 37° C.

human MMP14 = human MMP14 (Homo sapiens (Human), UniProt P50281); settings: read-out: hMMP-14 potency IC50

Sequence of human TACE (P78536 whole entry, looked up, change not shown): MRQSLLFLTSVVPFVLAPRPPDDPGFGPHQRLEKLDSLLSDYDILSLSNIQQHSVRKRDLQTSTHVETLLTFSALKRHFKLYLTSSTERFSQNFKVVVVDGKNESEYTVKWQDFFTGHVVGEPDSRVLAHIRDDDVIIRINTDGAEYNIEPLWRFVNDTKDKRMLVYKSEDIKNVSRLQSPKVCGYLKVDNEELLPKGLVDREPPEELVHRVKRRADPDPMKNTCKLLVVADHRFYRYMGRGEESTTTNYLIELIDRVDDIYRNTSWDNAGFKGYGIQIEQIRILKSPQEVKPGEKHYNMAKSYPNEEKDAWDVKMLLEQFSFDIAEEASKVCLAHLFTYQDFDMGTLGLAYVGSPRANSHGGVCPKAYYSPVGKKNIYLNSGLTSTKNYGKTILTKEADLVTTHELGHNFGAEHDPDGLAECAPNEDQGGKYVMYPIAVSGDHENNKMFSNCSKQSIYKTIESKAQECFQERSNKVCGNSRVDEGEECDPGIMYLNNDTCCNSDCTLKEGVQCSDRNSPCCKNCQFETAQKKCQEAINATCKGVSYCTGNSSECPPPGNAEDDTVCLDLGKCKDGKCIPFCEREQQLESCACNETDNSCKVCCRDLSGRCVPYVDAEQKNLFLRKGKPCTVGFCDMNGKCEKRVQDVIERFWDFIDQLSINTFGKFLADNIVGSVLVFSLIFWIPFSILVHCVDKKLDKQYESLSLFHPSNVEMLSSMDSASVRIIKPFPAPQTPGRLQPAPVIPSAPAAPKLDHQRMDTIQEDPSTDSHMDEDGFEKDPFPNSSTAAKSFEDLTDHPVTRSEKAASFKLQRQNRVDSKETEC
Sequence of human ADAMTS-5 (Q9UNA0 262-930): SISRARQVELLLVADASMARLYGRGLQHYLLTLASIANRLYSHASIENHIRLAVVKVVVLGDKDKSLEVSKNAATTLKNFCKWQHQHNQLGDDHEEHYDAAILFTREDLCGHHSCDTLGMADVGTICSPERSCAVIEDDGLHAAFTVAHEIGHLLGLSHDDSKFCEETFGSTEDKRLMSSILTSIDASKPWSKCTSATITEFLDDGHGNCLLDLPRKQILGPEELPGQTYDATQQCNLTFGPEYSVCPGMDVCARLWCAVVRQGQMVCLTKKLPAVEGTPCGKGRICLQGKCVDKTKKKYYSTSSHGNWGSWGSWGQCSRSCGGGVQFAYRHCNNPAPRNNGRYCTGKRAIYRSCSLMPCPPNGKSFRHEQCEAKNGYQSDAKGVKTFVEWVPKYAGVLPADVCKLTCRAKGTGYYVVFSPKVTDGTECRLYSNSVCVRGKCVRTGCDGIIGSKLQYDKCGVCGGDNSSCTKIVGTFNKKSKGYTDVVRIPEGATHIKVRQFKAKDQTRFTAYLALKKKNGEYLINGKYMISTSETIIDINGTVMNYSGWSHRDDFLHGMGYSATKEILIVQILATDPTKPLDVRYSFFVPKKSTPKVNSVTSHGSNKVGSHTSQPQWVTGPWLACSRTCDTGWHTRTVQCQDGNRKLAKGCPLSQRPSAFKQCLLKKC

Row | Structure (SMILES) | pIC50 (human TACE) | pIC50 (human ADAMTS-5) | pIC50 (human MMP14)
1 | Cc1cccc(C2(CCC(=O)N3CCN(c4cccc(F)c4)[C@@H](C)C3)NC(=O)NC2=O)n1 (stereo partly drawn) [compound 308, 5-[3-[(3S)-4-(3-fluorophenyl)-3-methyl-piperazin-1-yl]-3-oxo-propyl]-5-(6-methyl-2-pyridyl)imidazolidine-2,4-dione] | < 5.40 | 7.23 | < 4.70
2 | Cc1cccc(C2(CCC(=O)N3CCN(c4cc(F)cc(F)c4)[C@@H](C)C3)NC(=O)NC2=O)n1 (stereo partly drawn) [compound 309, 5-[3-[(3S)-4-(3,5-difluorophenyl)-3-methyl-piperazin-1-yl]-3-oxo-propyl]-5-(6-methyl-2-pyridyl)imidazolidine-2,4-dione] | < 5.40 | 7.51 | < 4.70
3 | CC(CC1(C2CC2)NC(=O)NC1=O)C(=O)N1CCN(c2cncc(F)c2)[C@@H](C)C1 (stereo partly drawn) [compound 313, 5-cyclopropyl-5-[3-[(3S)-4-(5-fluoro-3-pyridyl)-3-methyl-piperazin-1-yl]-2-methyl-3-oxo-propyl]imidazolidine-2,4-dione] | < 4.70 | 7.47 | < 4.70
4 | C[C@H]1CN(C(=O)CCC2(c3cccnc3)NC(=O)NC2=O)CCN1c1ccc(F)c(Cl)c1 (stereo partly drawn) [compound 316, 5-[3-[(3S)-4-(3-chloro-4-fluoro-phenyl)-3-methyl-piperazin-1-yl]-3-oxo-propyl]-5-(3-pyridyl)imidazolidine-2,4-dione] | < 5.40 | 7.21 | < 4.70
5 | C[C@H]1CN(C(=O)CCC2(c3cccnc3)NC(=O)NC2=O)CCN1c1cc(F)cc(Cl)c1 (stereo partly drawn) [compound 317, 5-[3-[(3S)-4-(3-chloro-5-fluoro-phenyl)-3-methyl-piperazin-1-yl]-3-oxo-propyl]-5-(3-pyridyl)imidazolidine-2,4-dione] | < 5.40 | 7.28 | 6.08
6 | C[C@H]1CN(C(=O)CCC2(c3cccnc3)NC(=O)NC2=O)CCN1c1cccc(F)c1 (stereo partly drawn) [compound 319, 5-[3-[(3S)-4-(3-fluorophenyl)-3-methyl-piperazin-1-yl]-3-oxo-propyl]-5-(3-pyridyl)imidazolidine-2,4-dione] | < 5.40 | 7.03 | < 5.40
7 | C[C@H]1CN(C(=O)CCC2(c3cccnc3)NC(=O)NC2=O)CCN1c1cc(F)cc(F)c1 (stereo partly drawn) [compound 320, 5-[3-[(3S)-4-(3,5-difluorophenyl)-3-methyl-piperazin-1-yl]-3-oxo-propyl]-5-(3-pyridyl)imidazolidine-2,4-dione] | < 5.40 | 7.32 | < 4.70
8 | C[C@H]1CN(C(=O)CCC2(c3cnccn3)NC(=O)NC2=O)CCN1c1cc(F)cc(Cl)c1 (stereo partly drawn) [compound 326, 5-[3-[(3S)-4-(3-chloro-5-fluoro-phenyl)-3-methyl-piperazin-1-yl]-3-oxo-propyl]-5-pyrazin-2-yl-imidazolidine-2,4-dione] | < 5.40 | 7.28 | < 5.40
9 | C[C@H]1CN(C(=O)CCC2(c3cnccn3)NC(=O)NC2=O)CCN1c1cc(F)cc(F)c1 (stereo partly drawn) [compound 327, 5-[3-[(3S)-4-(3,5-difluorophenyl)-3-methyl-piperazin-1-yl]-3-oxo-propyl]-5-pyrazin-2-yl-imidazolidine-2,4-dione] | < 5.40 | 7.35 | < 5.40
10 | C[C@H]1CN(C(=O)CCC2(c3cncnc3)NC(=O)NC2=O)CCN1c1cc(F)cc(F)c1 (stereo partly drawn) [compound 332, 5-[3-[(3S)-4-(3,5-difluorophenyl)-3-methyl-piperazin-1-yl]-3-oxo-propyl]-5-pyrimidin-5-yl-imidazolidine-2,4-dione] | < 4.70 | 7.21 | 6.42
11 | C[C@@H](CC1(C2CC2)NC(=O)NC1=O)C(=O)N1CCN(c2cccc(-c3cn[nH]c3)c2)[C@@H](C)C1 (stereo partly drawn) [compound 339, 5-cyclopropyl-5-[(2S)-2-methyl-3-[(3S)-3-methyl-4-[3-(1H-pyrazol-4-yl)phenyl]piperazin-1-yl]-3-oxo-propyl]imidazolidine-2,4-dione] | < 5.40 | 7.48 | 5.91
